Laboratory results as given in PMC6259748, “Selection of Peptides Targeting Helix 31 of Bacterial 16S Ribosomal RNA by Screening M13 Phage-Display Libraries” (Molecules, 2011).

What was measured:
[1] = tested on: translation of green fluorescent protein (GFP); assay: coupled in vitro transcription-translation inhibition assay (GFP); assay type: biochemical, E. coli; settings: for inhibition of in vitro protein synthesis: cell-free translation, summary statement; for GFP fluorescence lower compared to DIRTQRE: peptide 1 mM, at 120 min, ex 487 nm; for order of translation inhibition by peptides (from high to low) / inhibitory effect on protein translation: peptides at 1 mM, GFP fluorescence; for inhibitory effect on protein translation: in words
Protocol: A cell-free translation assay was used to test the potential inhibitory effects of the peptides on protein synthesis. Different concentrations of peptides were added to E. coli S30 extracts and the extent of inhibition was monitored by the measurement of green fluorescent protein (GFP) translation.
The inhibitory effects of selected peptides (DIRTQRE, CVRPFAL, FVRPFAL, TLWDLIP and TYLPWPA) on cellular processes were determined by in vitro coupled transcription-translation inhibition assay. The PURExpress™ in vitro protein synthesis kit #E6800S from New England Biolabs (Beverly, MA) was used for this purpose. A DNA template for GFP (pRSETEmGFP plasmid, Invitrogen) was employed at a concentration of 10 µg/mL in a 15 µL of reaction volume. Different concentrations of peptides were added, ranging from 300 µM to 2 mM. The DNA template was added only after mixing of the peptides or streptomycin so that they could bind to their target region first. For the control, streptomycin was added at a final concentration of 300 µM. The reaction was incubated in 384-well, Costar, clear-well, black plates and in situ incubated at 37 °C in a Gemini XPS microplate spectrofluorometer (Molecular Devices, Sunnyvale, CA) and the amount of GFP produced was monitored at different time intervals from 0 min to 2 h by fluorescence (excitation at 487 nm, emission at 509 nm).

[2] = tested on: GFP-S11-labeled 30S subunits; assay: ribosome-binding assay on Tentagel beads; parameters: species or system E. coli; settings: for order of binding preference by the 30S subunits (from high to low): fluorescence microscopy, pH 7.3; for fluorescence on beads after 30S binding: peptide on Tentagel beads, 30S subunits overnight at 4 °C, 20 mM HEPES, pH 7.3, 10 mM MgCl2, 100 mM KCl, duplicate
Protocol: The purpose of this experiment was to determine whether the selected peptides have affinity for bacterial ribosomes. The binding affinities of various peptides could also be compared by this method. Small ribosomal subunits, 30S, labeled with GFP on ribosomal protein S11 were added to peptides covalently attached to Tentagel beads (Figure 4A). […] The peptides were chemically synthesized on Tentagel beads with their N-termini exposed. Increasing concentrations of GFP-tagged 30S subunits were added to the Tentagel-bound peptides and unbound 30S subunits were removed by washing. Relative fluorescence intensity of the 30S subunits bound to the peptides on bead was determined by imaging on a fluorescence microscope, with the assumption that the level of fluorescence on the beads was proportional to the affinity of the ribosome for the peptide sequence.
Four peptides isolated from the phage-display experiment, […], DIRTQRE, TLWDLIP, and […], were synthesized on Tentagel (Rapp Polymer, Tübingen, Germany) beads using standard Fmoc synthesis. The beads were stored in DMF until use. The beads were then washed three times with 450 μl of water, and three times with 450 μL of the binding buffer B (binding buffer: 20 mM HEPES, pH 7.3, 10 mM MgCl2, 100 mM KCl), using 0.45 μm MWCO Nanosep (Pall Corporation, Ann Arbor, MI). The beads were then centrifuged at 6,000 rpm for 1–2 min.
Fluorescently labeled 30S subunits were isolated by sucrose gradient centrifugation in 5 mM Mg^2+ [82]. For control experiments, His(6)-EmGFP-S11 was purified using IMAC resin (Bio-Rad, Hercules, CA) and the fluorescence was assayed using beads carrying peptides with ribosomes, beads carrying peptides with His(6)-EmGFP-S11 (no ribosomes) and beads only with ribosomes (no peptides).
The fluorescent ribosomes were incubated in binding buffer B (20 mM HEPES, pH 7.3, 10 mM MgCl2, 100 mM KCl) at 37 °C for 30 min. Next, 25 pmoles of ribosome solution was added to each peptide, and the mixture was incubated overnight at 4 °C with agitation. Unbound ribosomes were removed by two 450 μL washes with binding buffer B and centrifugation at 6,000 rpm for 1–2 min. The beads were resuspended in 40 μL of binding buffer B for microscope screening and kept on ice until scanning. The beads (20 μL) were spread on microscope slides for scanning (Olympus 1X71 microscope, TH4 100 Olympus lamp, Olympus UCMAD 3 camera, 20× magnification). An average of two pictures were taken per slide, eliminating beads presenting uneven swelling and cracks.

wild-type modified h31 = assay: surface plasmon resonance (SPR), modified h31; assay type: binding, E. coli
Protocol: Modified h31 was labeled with biotin in order to immobilize the RNA onto a surface and determine the kinetics of peptide binding by surface plasmon resonance (SPR). […] In order to enhance the signal-to-noise ratio, a GFP-protein-fused peptide, TYLPWPA-GFP, was generated and used as the analyte.
Biotinylated, modified h31 RNA was immobilized onto a streptavidin-coated CM5 chip and differing concentrations of TYLPWPA-GFP (10–100 µM) were injected as the analyte. A range of salt concentrations, detergent levels, pH conditions, and flow rates were tested, since these factors affect the peptide-RNA complex formation (data not shown). The apparent dissociation constants were determined under the following optimized conditions: 10 mM Tris·HCl, 150 mM NaCl, 10 mM MgCl2, 1 mM dithiothreitol (DTT), 0.005% (v/v) P20 at pH 7.5 as the running buffer at a flow rate of 50 μL/min.
All immobilization and subsequent binding studies were performed using a BIAcore 2000 instrument set at a temperature of 25 °C. Standard dextran surface BIAcore sensorchips (Sensor chip CM5) were purchased from BIAcore (GE Healthcare, Piscataway, NJ). Standard desorb and sanitize routines were performed according to the BIAcore guidelines before docking a new CM5 sensor chip. All buffers were filtered through sterile 0.2 μm nylon membranes (Millipore™) under vacuum. Before derivatizing the flow cells with streptavidin, the CM5 sensor chip was pre-conditioned using three successive 10 μL injections of chip-preparation solution (10 mM NaOH, 500 mM NaCl) at 100 μL/min, followed by a normalization routine using BIAnormalizing solution (40% glycerol). Streptavidin derivatization was performed according to standard procedures.
Prior to immobilization, the solution of biotinylated RNA in HBS-EP buffer (10 mM HEPES, 3 mM EDTA, 150 mM NaCl, 0.005% P20 at pH 7.4) was renatured by heating to 90 °C for 2 min, cooling gradually to room temperature, and placing on ice. Flow cells were functionalized by injecting 30 μL of RNA at a time using the MANUAL INJECT command at a flow rate of 10 μL/min, until the desired immobilization level was reached. One of the flow cells was used to immobilize RNA, while the adjacent cell remained unmodified to serve as a blank-control for matrix effects. Levels of RNA captured were calculated by subtracting […] for each flow cell. After RNA immobilization, both flow cells were blocked with 100 μL of 1 mg/mL biotin at 5 μL/min.
For the SPR experiments, the peptides were cloned into plasmid pBacEmGH (Cunningham Lab, to be described elsewhere) under transcriptional regulation of a PBAD promoter. Upon induction with L-arabinose, the resulting construct produces a fusion protein in which the peptide is fused to the N-terminus of EmGFP containing a C-terminus 6 x His affinity tag (PEP-EmGFP-6 x His).
Peptide samples were prepared by serial dilutions from stock solutions. Dilutions were made in running buffer (10 mM Tris·HCl, 150 mM NaCl, 10 mM MgCl2, 1 mM DTT, 0.005% (v/v) P20 at pH 7.5). All procedures for binding were automated, as optimized methods using repetitive cycles of sample injection and regeneration. Typically, running buffer was injected for ~30 min prior to experiment to establish a stable baseline value. Peptide solutions (200 μL) were injected at a kinetic flow rate of 50 μL/min, using the KINJECT command. All peptide samples were injected from 7 mm plastic vials (BIAcore) that were capped with pierceable plastic-crimp-caps to minimize carry-over and sample evaporation. Samples were injected in order of increasing concentration. The surface was regenerated using 150 μL of 500 mM NaCl. The data were fit to a 1:1 binding Langmuir model using BIAevaluation 3.0 software. […]

[3] = tested on: CVRPFAL-GFP (synthetic fusion (expressed by L-arabinose induction)); assay: SPR; settings: m2G966; m5C967 (E. coli numbering); 5' phosphorothioate; SPR: 10 mM Tris-HCl pH 7.5, 150 mM NaCl, 10 mM MgCl2, 1 mM DTT, 0.005% P20, 50 uL/min, streptavidin-coated CM5 chip; CD: 10 mM sodium phosphate pH 7, 100 mM …
[4] = tested on: TLWDLIP-GFP (synthetic fusion (expressed by L-arabinose induction)); assay: SPR; settings: m2G966; m5C967 (E. coli numbering); 5' phosphorothioate; SPR: 10 mM Tris-HCl pH 7.5, 150 mM NaCl, 10 mM MgCl2, 1 mM DTT, 0.005% P20, 50 uL/min, streptavidin-coated CM5 chip; CD: 10 mM sodium phosphate pH 7, 100 mM …
GFP (EmGFP) = assay: SPR; settings: m2G966; m5C967 (E. coli numbering); 5' phosphorothioate; SPR: 10 mM Tris-HCl pH 7.5, 150 mM NaCl, 10 mM MgCl2, 1 mM DTT, 0.005% P20, 50 uL/min, streptavidin-coated CM5 chip; CD: 10 mM sodium phosphate pH 7, 100 mM …
[5] = tested on: TYLPWPA-GFP (synthetic fusion (expressed by L-arabinose induction)); assay: SPR; settings: m2G966; m5C967 (E. coli numbering); 5' phosphorothioate; SPR: 10 mM Tris-HCl pH 7.5, 150 mM NaCl, 10 mM MgCl2, 1 mM DTT, 0.005% P20, 50 uL/min, streptavidin-coated CM5 chip; CD: 10 mM sodium phosphate pH 7, 100 mM …
TYLPWPA peptide [6] = target: T1, TYLPWPA peptide (synthetic (phage display)); assay: fluorescence titration (quenching); 10 mM HEPES, 50 mM NaCl, 1 mM Na2EDTA, pH 7.5, 25 C; apparent, 7% signal change; SPR: 10 mM Tris-HCl pH 7.5, 150 mM NaCl, 10 mM MgCl2, 1 mM DTT, 0.005% P20, 50 uL/min, streptavidin-coated CM5 chip; CD: 10 mM sodium phosphate pH 7, 100 mM NaCl, 0.1 mM Na2EDTA, 25 C; fluorescence: 10 mM HEPES pH 7.5, 50 mM NaCl, 1 mM Na2EDTA, 25 C; settings: label: 5'-fluorescein; hairpin
T1 chain: TYLPWPA

TYLPWPA peptide [7] = target: T1, TYLPWPA peptide; assay: CD titration; 100 mM NaCl, 10 mM sodium phosphate, 0.1 mM Na2EDTA, pH 7.0, 25 C; apparent, poor fit; SPR: 10 mM Tris-HCl pH 7.5, 150 mM NaCl, 10 mM MgCl2, 1 mM DTT, 0.005% P20, 50 uL/min, streptavidin-coated CM5 chip; CD: 10 mM sodium phosphate pH 7, 100 mM NaCl, 0.1 mM Na2EDTA, 25 C; fluorescence: 10 mM HEPES pH 7.5, 50 mM NaCl, 1 mM Na2EDTA, 25 C; settings: hairpin

## [H]/N=C(/N)N[C@H]1[C@H](O)[C@@H](O)[C@H](O[C@@H]2O[C@@H](C)[C@](O)(C=O)[C@H]2O[C@@H]2O[C@@H](CO)[C@H](O)[C@@H](O)[C@@H]2NC)[C@@H](N/C(N)=N\[H])[C@@H]1O [Streptomycin, streptomycin, reference compound]
[1]; 300 µM, positive control, 37 °C, fluorescence ex 487 nm, em 509 nm
  inhibition of GFP translation: completely inhibited GFP translation

## CVRPFAL [heptapeptide from selection against modified h31 with unmodified h31 counter selection]
[1]
  inhibition of in vitro protein synthesis: inhibit in vitro protein synthesis
  inhibitory effect on protein translation: best inhibitory effects
[1]; em 509 nm
  GFP fluorescence lower compared to DIRTQRE: four
[1]; 37 °C
  order of translation inhibition by peptides (from high to low): CVRPFAL ≈ FVRPFAL > TLWDLIP > TYLPWPA > DIRTQRE
[2]; Tentagel beads
  order of binding preference by the 30S subunits (from high to low): TYLPWPA > CVRPFAL ≈ TLWDLIP > DIRTQRE
[2]
  fluorescence on beads after 30S binding: Fluorescence is observed
wild-type modified h31; in words, comparable to known antibiotics targeting 16S rRNA
  binding affinity to modified h31: high nM

## DIRTQRE [heptapeptide selected against wild-type modified h31]
[1]; 37 °C
  order of translation inhibition by peptides (from high to low): CVRPFAL ≈ FVRPFAL > TLWDLIP > TYLPWPA > DIRTQRE
[2]; Tentagel beads
  order of binding preference by the 30S subunits (from high to low): TYLPWPA > CVRPFAL ≈ TLWDLIP > DIRTQRE
[2]; Tentagel beads, quantified fluorescence, of the four peptides tested
  relative binding affinity to 30S subunits: lowest relative affinity
[2]
  fluorescence on beads after 30S binding: Fluorescence is observed

## FVRPFAL [heptapeptide selected against wild-type modified h31]
[1]
  inhibition of in vitro protein synthesis: promising results in the in vitro translation assay
  inhibitory effect on protein translation: best inhibitory effects
[1]; em 509 nm
  GFP fluorescence lower compared to DIRTQRE: four
[1]; 37 °C
  order of translation inhibition by peptides (from high to low): CVRPFAL ≈ FVRPFAL > TLWDLIP > TYLPWPA > DIRTQRE

## GUUCGAUGCAACGCGAAC [modified h31 (wild-type), biotinylated]
[3]
  Kd: 0.23 µM
[4]
  Kd: 0.33 µM
GFP (EmGFP)
  Kd: 20 µM
[5]
  Kd: 28 µM

## TYLPWPA-GFP
wild-type modified h31; 1:1 Langmuir, 10 mM Tris·HCl, 150 mM NaCl, 10 mM MgCl2, 1 mM DTT, 0.005% P20, pH 7.5, 50 μL/min, 25 °C, CM5 chip
  ka (association rate constant): (1.50 ± 0.02) × 10^2 M^-1s^-1
wild-type modified h31; 1:1 Langmuir, pH 7.5, 150 mM NaCl, 10 mM MgCl2, 50 μL/min, 25 °C, CM5 chip
  kd (dissociation rate constant): (4.2 ± 0.04) × 10^-3 s^-1
wild-type modified h31; SPR kinetic analysis, 1:1 Langmuir, pH 7.5, 150 mM NaCl, 10 mM MgCl2, 50 μL/min, 25 °C, TYLPWPA-GFP 10–100 µM
  KD (kd/ka): 28 ± 1 µM

## GUUCGAUGCAACGCGAAC (structured_RNA, m2G966; m5C967 (E. coli numbering); 5' phosphorothioate) [F-h31 (modified h31, fluorescein)]
TYLPWPA peptide [6]
  Kd: 27 ± 4 µM

## GUUCGAUGCAACGCGAAC (structured_RNA, m2G966; m5C967 (E. coli numbering)) [modified h31 (wild-type), unlabeled]
TYLPWPA peptide [7]
  Kd: 28 ± 10 µM
